Source: patent US5278045A, “Method and compositions to screen compounds for enhancement of the cholinergic, dopaminergic and serotonergic function” (Du Pont Merck Pharmaceutical Company, priority 1990, dated 1994)
Blank lines part the entries; values can stand above or below the compound they belong to.

Key:
[1] = system: Detergent Solubilized Rat Brain Membrane Proteins; test: Specific [^3 H]DuP 996 binding to detergent solubilized rat brain membrane proteins; conditions: 10 nM tritiated DuP 996
Method: […] The mixture was centrifuged at 47,000×g for 20 minutes. The supernatant containing the solubilized protein was collected. The supernatant from centrifugation of brain membranes without detergent was used as the control.
Fifty μl aliquots of the solubilized membrane protein were incubated with 0.2 ml of 50 mM Tris-HCl, pH 7.4, with 0.1% bovine serum albumin, and 10 nM tritiated DuP 996 in a total volume of 0.325 ml. Nonspecific binding was determined in the presence of 10 μM DuP 996. After 1 hour of incubation at 25° C., 0.5 ml of ice-cold 0.1M sodium phosphate buffer, pH 7.4, with 0.1% bovine gamma globulin was added. The sample was put on ice and then 0.5 ml of 25% (w/v) polyethylene glycol 8000 was added and mixed. The sample was put on ice for 10 to 15 minutes and filtered through Whatman GF/B filters which had been presoaked in 0.2% polyethylenimine. The filtered sample was washed twice with 3 ml each of ice cold 8% polyethylene glycol 8000 in 100 mM Tris-HCl, pH 7.4. Bound radioactivity retained on the filters was counted in a liquid scintillation counter.

DuP 996 binding protein [2] = test: Radioreceptor screening assay (displacement of tritiated DuP 996); set-up: species or system rat; conditions: inhibition of binding of 10 nM tritiated DuP 996, pH 7.4, 25° C., 60 minutes
Method: Male Sprague-Dawley rats (Charles River Breeding Laboratories) at 200-250 g were euthanatized by decapitation. Rat brain regions were dissected according to Heffner et al., Pharmacol. Biochem. Behav., 13, 453 (1980). Brain membranes were prepared by the method of Tam, Proc. Natl. Acad. Sci. USA, 80, 6703 (1983). The brain tissues were homogenized (20 sec) in 10 vol (wt/vol) of ice-cold 0.32M sucrose with a Brinkman Polytron (setting 8). The homogenate was centrifuged at 920×g for 10 min at 4° C. The supernatant was centrifuged at 47,000×g for 20 min. The resulting membrane pellet was resuspended in 10 vol (original wt/vol) of 50 mM Tris-HCl (pH 7.4) and incubated at 37° C. for 30 min to degrade and dissociate bound endogenous ligands. The membranes were then centrifuged at 47,000×g for 20 min and resuspended in 50 mM Tris-HCl.
Compounds to be screened were incubated with brain membranes. (1-2 mg protein) in 50 mM Tris-HCl buffer, pH 7.4, for 10 minutes in 25° C. Then 10 nM tritiated DuP 996 or its active structural analogs were added and incubated at 25° C. for 60 minutes. The samples were filtered on Whatman GF/B glass filters which had been soaked in 0.2% polyethylenimine and washed 3 times each with 5 ml of ice-cold Tris buffer. Nonspecific binding was determined by performing binding in the presence of 10 μM DuP 996. The control represents specific binding in the absence of compounds to be screened. Screened compounds which inhibited the specific binding of tritiated DuP 996 or analogs to its binding protein should be active in binding to the same protein. This is illustrated further in Example 4, Part B.

DuP 996 binding protein [3] = test: Trypsin pretreatment, binding of tritiated DuP 996; set-up: species or system rat; conditions: 0.1-100 μg/ml trypsin, 25° C., 10 min
Method: (§1) One ml aliquots of brain membranes (1-2 mg of protein) in 50 mM Tris-HCl buffer, pH 7.4, were incubated with 0.1-100 μg/ml of trypsin (17,000 BAEE units/mg protein) at 25° C. for 10 min. 10 nM of tritiated DuP 996 was added and incubated for 45 min at 25° C. for ten minutes. Samples were filtered on Whatman GF/B filters which had been presoaked in 0.2% polyethylenimine under negative pressure and washed 3 times with ice-cold buffer. Nonspecific binding was determined in the presence of 10 μM DuP 996.

DuP 996 binding protein [4] = test: Phospholipase C pretreatment, binding of tritiated DuP 996; set-up: species or system rat; conditions: 5-50 μg/ml phospholipase C, 10 min, 37° C.
Method: as §1, with “5-50” for “0.1-100”, “phospholipase C” for “trypsin (17,000 BAEE units/mg protein) at 25° C.”, “min at 37° C.” for “min.”, “C.” for “C. for ten minutes.”

Alzheimer's patients = conditions: clinical trials with cholinesterase inhibitors, literature; cited from earlier work
ACh release = test: Neurotransmitter release assay: stimulated ACh release from brain slices; set-up: species or system rat; conditions: concentration to enhance stimulated release of ACh by 100% (2-fold) over control, from dose response curves
Method: Male Wistar rats weighing 175-200 g were euthanatized and the brains were dissected out immediately. Slices (0.3 mm thick) from the parietal cortex were prepared manually by using a recessed Lucite® guide. Slices (1.5 mm thick) from the hippocampus and the caudate nucleus were prepared by using a slotted brain holder. All slices were subsequently cut into 0.25×0.25 mm squares with a McIlwain tissue chopper.
Labeling of transmitter stores in slices was prepared by the following methods. For ACh release, slices (approximately 100 mg wet weight) were incubated in 10 ml Krebs-Ringer (KR) medium containing (mM): NaCl(116), KCl(3), CaCl2 (1.3), MgCl2 (1.2), KH2 PO4 (1.2), Na2 SO4 (1.2), NaHCO3 (25) and glucose(11), to which 10 μCi ^3 H-choline (specific activity approx. 80 Ci/mmol: NEN) and 10 nmol unlabeled choline had been added to give a final concentration of 10^-6 M. Incubation was carried out for 30 min at 37° C. under a steady flow of 95% O2 /5% CO2. Under these conditions, part of the radioactive choline taken up is converted into radioactive ACh by cholinergic nerve endings, stored in synaptic vesicles, and released upon depolarization by high-K^+ -containing medium [Molenaar et al., 1973a]. For dopamine (DA), serotonin (5-HT), and norepinephrine (NE) release, slices (approximately 100 mg wet weight) were incubated in KR medium containing 0.01 mM nialamide at 37° C. under a steady flow of 95% O2 /5% CO2. The MAO-inhibitor nialamide was added to the medium in order to inhibit metabolism to the monoamines. Incubation was for 30 min in 10 ml of KR medium to which 10 μCi ^3 H-dopamine, ^3 H-norepinephrine, or ^3 H-5-hydroxytryptamine (specific activity 30, 45, and 78 Ci/mmol, respectively: all from NEN) had been added.
Separate experiments were performed for the release of each neurotransmitter. After labeling of the transmitter stores, the slices were washed three times with non-radioactive KR medium and transferred to a superfusion apparatus to measure the drug effects on transmitter release [Schoemaker et al., Psychopharmacology 74, 137 (1981)]. The superfusion apparatus consisted of 10 thermo-jacketed glass columns of 5 mm diameter which were provided with GF/F glass fiber filters to support the brain slices (approximately 10 mg tissue/column). Superfusion was carried out with KR medium at a rate of 0.3 ml/min. For ACh release, 10^-5 M hemicholinium-3 was added to the medium to prevent the uptake of choline formed during superfusion from phospholipids and released ACh, so that it could not be subsequently converted into newly synthesized ACh, which would be released in preference to the pre-formed, labeled ACh. The medium was delivered by a 25-channel peristaltic pump (Ismatec; Brinkman) and maintained at 37° C. by a thermostated stainless-steel heating coil before entering the superfusion column. Each column was provided with a four-way slider valve (Beckman Instruments) which allowed rapid change of low-to-high-K^+ -KR-medium and with two 10-channel, 3-way valves which were used to change form drug-free to drug-containing low- and high-K^+ -KR media.
After 15 min washout of non-specifically bound radioactivity during superfusion, the collection of fractions of 4 min (1.2 ml) each was started. After 3×4 min, the KR medium was changed to a KR medium with 25 mM KCl (ACh, 5-HT release) or 12.5 mM KCl (DA release) (high K^+ -KR medium; S1). Depolarization-induced stimulation of release by high-K^+ -KR medium was then substituted by drug- or vehicle-containing low- and high-K^+ -KR medium and superfusion continued for 3×4 min with low-K^+ -KR medium, for 1×4 min with high-K^+ -KR medium (S2), and for 2×4 min with low-K^+ -KR medium.
Compounds were added to the medium by 100-fold dilution of appropriate stock solutions (in 0.9% NaCl/H2 O) with either low- or high-K^+ -KR medium.
All superfusion fractions were collected in liquid scintillation counting vials.

SPECIFIC BINDING ([1]; CHAPS, 20 mM): 868 dpm
SPECIFIC BINDING ([1]; NP40): 348 dpm
SPECIFIC BINDING ([1]; Octyl glucoside, 0.4%): 511 dpm
SPECIFIC BINDING ([1]; Triton X-100, 1%): 0 dpm
SPECIFIC BINDING ([1]; Tween 80, 1%): 134 dpm
IC50 (DuP 996 binding protein [2]): 56 nM
Structure (SMILES): O=C1N(c2ccccc2)c2ccccc2C1(Cc1ccncc1)Cc1ccncc1 [Compound 7, 3,3-Bis(4-pyridinylmethyl)-1-phenylindolin-2-one]
tritiated DuP 996 binding activity after trypsin preincubation (DuP 996 binding protein [3]): loss of tritiated DuP 996 binding activity
DuP 996 binding activity after preincubation with phospholipase C (DuP 996 binding protein [4]): no effect on the DuP 996 binding activity

Structure (SMILES): CNC(=O)Oc1ccc2c(c1)[C@]1(C)CCN(C)[C@@H]1N2C [physostigmine]
cognitive measures in Alzheimer's patients (Alzheimer's patients): limited improvement in cognitive measures

IC50 (DuP 996 binding protein [2]): 6030 nM
Structure (SMILES): O=C1C(Cc2cccnc2)c2ccccc2N1c1ccccc1 (stereo not shown) [Compound 21, 1,3-Dihydro-1-phenyl-3-(3-pyridinylmethyl)-2H-indol-2-one]
ACh Release EC100 (ACh release): 12,000 nM

IC50 (DuP 996 binding protein [2]): 62 nM
Structure (SMILES): Cc1ccc2c(c1)C(Cc1ccncc1)(Cc1ccncc1)c1ccccc1-2 [Compound 8, 4-[2-Methyl-9-(4-pyridinyl-methyl)-9H-fluoren-9-ylmethyl]pyridine]
ACh Release EC100 (ACh release): 170 nM
